Results on 3 molecules are retold here after US20020165237A1, “Treatment of the insulin resistance syndrome” (priority 2000, published 2002).

The subject of experiment [1] is ob/ob mice. Kind of experiment: Plasma glucose, cGMP and triglyceride levels in ob/ob mice, oral gavage, 5 day study. The class given is in vivo. The following applies: mean ± SEM; for Changes in Plasma Glucose Concentrations: over 5 day period; for Plasma Triglyceride Level: day 5, 3 hours after dose. The procedure:
(§1) The selective PDE5 inhibitor compounds to be tested were solubilized in 10% DMSO/0.1% pluronics and dosed via oral gavage using mouse oral feeding needles (20 gauge, Popper & Sons, Inc., New Hyde Park, N.Y.). A volume of 4 ml/kg weight was administered for each dose. Compounds were tested at doses ranging from 1-50 mg/kg. Alternatively, the test selective PDE5 inhibitor compound was administered in the drinking water and found to produce similar reductions in plasma glucose and triglycerides to the reductions observed for the same compound when administered by oral gavage.
(§2) Male ob/ob mice obtained from Jackson Laboratories (Bar Harbor, ME) were used in the studies at 6 to 10 weeks of age. Mice were housed five per cage and allowed free access to D11 mouse chow (Purina, Brentwood, Mo.) and water.
(§3) Mice were allowed to acclimate to the Pfizer animal facilities for 1 week prior to the start of the study. On day one, retro-orbital blood samples were obtained and plasma glucose was determined as described hereinafter. […] On day one, mice were dosed with vehicle or a test selective PDE5 inhibitor compound only in the afternoon. Subsequently, mice were dosed twice a day on day 2-4 in the morning and in the afternoon. On day 5, the mice received an a.m. dose and bled 3 hours later for plasma preparation for glucose and triglyceride analysis as described below. Alternatively, test selective PDE5 inhibitor compound was administered in the drinking water commencing on the afternoon of day 1 and continuing through day 5, when mice were then bled for plasma preparation for glucose and triglyceride analysis as described below. Terminal plasma samples were collected on day 5 following the retro-orbital sinus bleed as described below. Body weight was measured on days 1 and 5 of the study, and food consumption was assessed over the 5 day period.
(§4) On the morning of the last day of the study mice were dosed with test compound or vehicle at approximately 8:00 am. Three hours after dosing, 25 μL of blood was obtained via the retro-orbital sinus and added to 100 μL of 0.025% heparinized-saline in Denville Scientific microtubes. The tubes were spun at the highest setting in a Beckman Microfuge 12 for 2 minutes. Plasma was collected for plasma glucose and triglyceride determination. The mice were then sacrificed by decapitation and ˜1 ml of blood was collected in Becton-Dickinson Microtainer brand plasma separator tubes with lithium heparin. The tubes were spun in a Beckman Microfuge 12 at the maximum setting for five minutes. Plasma was collected in 1.5 ml Eppendorf tubes and snap frozen in liquid nitrogen. Plasma samples were stored at −80° C. until analyzed.
(§5) Plasma glucose and triglycerides were measured using the Alcyon Clinical Chemistry Analyzer (Abbott Laboratories, Abbott Park, Ill.) using kits supplied by Abbott. Plasma cGMP was measured using the Biotrak enzyme-immunoassay system by Amersham (Piscataway, N.J.). Via a similar technique the plasma insulin can be assessed by the Mercodia ELISA Insulin kit by ALPCO (Uppsala, Sweden). All assays were conducted according to instructions provided by the manufacturers.
(§6) Comparisons between drug treatments and appropriate vehicles were done by Student's t-test.

Experiment [2] has as its system non-diabetic subjects with the insulin resistance syndrome. Put plainly: Clinical Trial Data 1: 28-day clinical trial with sildenafil, serum triglyceride levels. Conditions: for Fall in serum triglycerides from baseline / Fall in serum triglyceride levels: 28 days; for Fall in serum triglyceride levels: non-diabetic subjects with IRS, preliminary data. The class given is in vivo, human. The procedure: In a 28-day clinical trial with sildenafil, serum triglyceride levels were obtained before and at the end of dosing from non-diabetic subjects. Doses included in the study were 10 mg, 25 mg and […] of sildenafil or placebo, dosed once daily. These subjects had the insulin resistance syndrome, as defined by the risk factors as defined hereinbefore. Data are presented in tables 5 and 6 below to illustrate that subjects had evidence of the insulin resistance syndrome. Coronary artery disease (CAD)/ischaemic heart disease (1HD) is one clinical end-point in subjects having the Insulin Resistance Syndrome. For this reason the presence of CAD/IHD was taken as evidence to support the existence of the Insulin Resistance Syndrome in patients with only one of the defined risk factors.

Experiment [3] has as its system ob/ob mice. Put plainly: Plasma glucose and triglyceride levels in ob/ob mice, compound administered in the drinking water, 5 day study. It is filed as in vivo. Conditions: for Plasma Triglyceride Level: day 5, mean ± SEM; for Changes in Plasma Glucose Concentrations: over 5 day period, mean ± SEM. The procedure: as §1, §2, §3, §4, §5, §6
The mark [4] stands for this setting: 10 mg once daily, baseline 255 mg/dl.
Setting [5] is: 25 mg once daily, baseline 213 mg/dl.
Setting [6] is: 50 mg once daily, baseline 191 mg/dl.

With `CCCOc1ccc(S(=O)(=O)N2CCN(CC)CC2)cc1-c1nc2c(CC)n(Cc3ccccn3)nc2c(=O)[nH]1` [PDE5 A, 3-ethyl-5-[5-(4-ethylpiperazin-1-ylsulphonyl)-2-n-propoxyphenyl]-2-(pyridin-2-yl)methyl-2,6-dihydro-7H-pyrazolo[4,3-d]pyrimidin-7-one], the “Changes in Plasma Glucose Concentrations” value in the experiment on ob/ob mice [1] (10 mg/kg oral gavage twice a day) is -115 ± 34 mg/dL; in the experiment with ob/ob mice [1] (50 mg/kg oral gavage twice a day), -105 ± 25 mg/dL. Moreover, the “Plasma Triglyceride Level” value in the experiment on ob/ob mice [1] (10 mg/kg oral gavage) worked out at 163 ± 10 mg/dL.
As for `CCCc1nn(C)c2c(=O)[nH]c(-c3cc(C(=O)CN4CCOCC4)ccc3OCC)nc12` [PDE5 B, 5-(2-ethoxy-5-morpholinoacetylphenyl)-1-methyl-3-n-propyl-1,6-dihydro-7H-pyrazolo[4,3-d]pyrimidin-7-one], in the experiment with ob/ob mice [1] (25 mg/kg oral gavage twice a day), the “Changes in Plasma Glucose Concentrations” value was -97 ± 32 mg/dL. Also, the “Plasma Triglyceride Level” value in the experiment with ob/ob mice [1] (25 mg/kg oral gavage) was 143 ± 7^ mg/dl.
Regarding `CCCc1nn(C)c2c(=O)[nH]c(-c3cc(S(=O)(=O)N4CCN(C)CC4)ccc3OCC)nc12` [PDE5 C, 5-[2-ethoxy-5-(4-methyl-1-piperazinylsulphonyl)phenyl]-1-methyl-3-n-propyl-1,6-dihydro-7H-pyrazolo[4,3-d]pyrimidin-7-one], the “Fall in serum triglycerides from baseline” value in experiment [2] (setting [4]) is “about 40%”; in experiment [2] (setting [5]) it was roughly 31%; in experiment [2] (setting [6]), roughly 12%. Further, the “Fall in serum triglyceride levels” value in experiment [2] (setting [4]) was 100.3 mg/dL; in experiment [2] (setting [5]), 67.3 mg/dL; in experiment [2] (setting [6]) it was 23.9 mg/dL. The “Reduction of serum triglycerides compared to placebo” value in experiment [2] (sildenafil group vs placebo, p=0.0457) is on record as “statistically significantly different compared to placebo”. The “HDL compared to placebo” value in experiment [2] (sildenafil group vs placebo, p=0.0539) was “trend”. Further, the “Plasma Triglyceride Level” value in the experiment on ob/ob mice [3] (9 mg/kg in the drinking water) was determined as 163 ± 14 mg/dL; with ob/ob mice [3] (22 mg/kg in the drinking water) it was 212 ± 20 mg/dL; in the experiment on ob/ob mice [3] (45 mg/kg in the drinking water), 151 ± 10 mg/dL. The “Changes in Plasma Glucose Concentrations” value was -27 ± 34 mg/dL in the experiment on ob/ob mice [3] (9 mg/kg in the drinking water), -15 ± 27 mg/dL in the experiment on ob/ob mice [3] (22 mg/kg in the drinking water) and −36 ± 22^ mg/dl with ob/ob mice [3] (45 mg/kg in the drinking water).
